In patent US12145911B2, “Inhibitors of cysteine proteases and methods of use thereof” (priority 2020, dated 2024):

Tests used:
HCoV 229E = HCoV 229E cytopathic effect (CPE) assay, CellTiter Glo; format: cell-based, Human Coronavirus (HCov) 229E; settings: protection from virus-induced CPE
Experimental: The antiviral activity of compounds is calculated based on the protection of the virus-induced CPE at each concentration normalized by the virus control.
Reagents and instruments used in this assay include luminescent cell viability assay kit CellTiter Glo (Promega) and Microplate Reader Synergy2 (BioTek).
Cytopathic effect (CPE) is measured by CellTiter Glo following the manufacturer's manual. The antiviral activity of compounds is calculated based on the protection of the virus-induced CPE at each concentration normalized by the virus control.

229E Mpro = target: T1, 229E Mpro (Human coronavirus 229E, UniProt P0C6X1); test: 229E Mpro assay (Table 3); format: biochemical, Human Coronavirus (HCov) 229E
T1 construct: Mpro
Experimental: Compounds are assayed using standard methods to assess compound activity and IC50. […] The assay buffer contains 20 mM of Tris-HCl (pH 7.3), 100 mM of NaCl, 1 mM of EDTA, 5 mM of TCEP and 0.1% BSA.
The compounds are added to an assay plate.
IC50 values of compounds are calculated with the GraphPad Prism software using the nonlinear regression model of log(inhibitor) vs. response—Variable slope (four parameters). The inhibition activity is calculated using the formula below, IC50 values is calculated using the Inhibition % data. Inhibition %=[(Sample−Average ZPE)/(Average HPE−Average ZPE)]*100%^# • ^#HEP: Hundred percent effect controls. […] Containing enzyme+substrate, no compound. • Sample: Compound activity testing wells. Containing compound+enzyme+substrate. • BG: Compound background control wells. Containing compound+substrate, no enzyme.

[1] = target: COVID-19 (nCoV-2019, SARS-CoV2) Mpro (Severe acute respiratory syndrome coronavirus 2, UniProt P0DTD1); test: SARS-CoV2 Mpro enzymatic assay; format: biochemical; settings: 25 nM Mpro, 25 μM substrate

T1 sequence (P0C6X1 2966-3267): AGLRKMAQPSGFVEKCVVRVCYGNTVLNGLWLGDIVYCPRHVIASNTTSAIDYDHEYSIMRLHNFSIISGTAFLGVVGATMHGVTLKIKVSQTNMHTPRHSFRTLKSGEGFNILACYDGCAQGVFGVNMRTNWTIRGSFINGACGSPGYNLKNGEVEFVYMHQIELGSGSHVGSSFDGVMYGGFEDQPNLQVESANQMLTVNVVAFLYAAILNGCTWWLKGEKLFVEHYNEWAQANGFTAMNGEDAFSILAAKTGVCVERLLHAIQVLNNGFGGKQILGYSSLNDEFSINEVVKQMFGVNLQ

| Structure (SMILES) | EC50 (229E Mpro) [nM] | IC50 [1] [nM] | further results |
| --- | --- | --- | --- |
| CC(C)CC(NC(=O)c1nc2ncccc2[nH]1)C(=O)NC(C#N)CC1CCNC1=O (single isomer, unassigned) [130 (Isomer 1)] | – | – | CC50 (Cell viability): > 30000 nM |
| COc1cccc2[nH]c(C(=O)NC(CC(C)(F)F)C(=O)NC(C#N)CC3CCNC3=O)cc12 (single isomer, unassigned) [497 (Isomer 2)] | < 2000 | – | EC50 (HCoV 229E): < 2000 nM |
| COc1cccc2[nH]c(C(=O)N3CC4(C[C@H]3C(=O)N[C@H](C#N)C[C@@H]3CCCNC3=O)CC(F)(F)C4)cc12 (single isomer, unassigned) [723 (Isomer 1)] | 10000 to 30000 | 10000 to 30000 | – |
| COc1cccc2[nH]c(C(=O)N3CC4(C[C@H]3C(=O)N[C@H](C#N)C[C@@H]3CCCNC3=O)CC(F)(F)C4)cc12 (single isomer, unassigned) [723 (Isomer 2)] | < 2000 | < 2000 | – |
| N#C[C@H](C[C@@H]1CCCNC1=O)NC(=O)[C@@H]1CC2(CN1C(=O)c1cc3cccc(Cl)c3[nH]1)CC(F)(F)C2 (single isomer, unassigned) [743 (Isomer 1)] | > 30000 | > 30000 | – |
| N#C[C@H](C[C@@H]1CCCNC1=O)NC(=O)[C@@H]1CC2(CN1C(=O)c1cc3cccc(Cl)c3[nH]1)CC(F)(F)C2 (single isomer, unassigned) [743 (Isomer 2)] | < 2000 | < 2000 | – |
| CC1(C)CCC(CC(C#N)NC(=O)[C@H](CC2CC2)NC(=O)c2cc3cccc(Cl)c3[nH]2)C(=O)N1 (single isomer, unassigned) [749A (Isomer 1)] | – | < 2000 | – |
| COC(=O)NS(=O)(=O)n1nccc1C(=O)NC(CC1CC1)C(=O)NC(C#N)CC1CCCNC1=O (single isomer, unassigned) [787A (Isomer 2)] | 2000 to 10000 | < 2000 | – |
| CC1(C)CC(C[C@@H](C#N)NC(=O)[C@H](CC2CC2)NC(=O)c2cc3cccc(Cl)c3[nH]2)C(=O)N1 (single isomer, unassigned) [1053 (Isomer 3)] | 2000 to 10000 | – | – |
| CC1(C)CC(CC(C#N)NC(=O)C(CC2CC2)NC(=O)c2cc3cccc(Cl)c3[nH]2)C(=O)N1 (single isomer, unassigned) [1053 (Isomer 4)] | < 2000 | – | – |
| COc1cccc2[nH]c(C(=O)N[C@H](CC3CC3)C(=O)N[C@H](C#N)C[C@@H]3CCC(C)(C)NC3=O)cc12 (single isomer, unassigned; isomer 1) [787A (Isomer 1)] | 2000 to 10000 | – | – |
| N#C[C@H](C[C@@H]1CCNC1=O)NC(=O)[C@@H]1CS[C@H]2CC[C@H](NC(=O)OCc3ccccc3)C(=O)N21 [Compound 457, Benzyl((3R,6S,8aS)-3-(((S)-1-cyano-2-((S)-2-oxopyrrolidin-3-yl)ethyl)carbamoyl)-5-oxohexahydro-2H-thiazolo[3,2-a]pyridin-6-yl)carbamate] | > 30000 | – | – |
| Cc1cc(C(=O)N[C@H]2CC[C@@H]3SC[C@@H](C(=O)N[C@H](C#N)C[C@@H]4CCNC4=O)N3C2=O)no1 [Compound 459, N-((3R,6S,8aS)-3-(((S)-1-cyano-2-((S)-2-oxopyrrolidin-3-yl)ethyl)carbamoyl)-5-oxohexahydro-2H-thiazolo[3,2-a]pyridin-6-yl)-5-methylisoxazole-3-carboxamide] | > 30000 | – | – |
| N#C[C@H](C[C@@H]1CCNC1=O)NC(=O)[C@H](CC1CC1)NC(=O)c1nc2c(Cl)cc(Cl)cc2[nH]1 [Compound 525, 4,6-dichloro-N-[(1S)-2-[[(1S)-1-cyano-2-[(3S)-2-oxopyrrolidin-3-yl]ethyl]amino]-1-(cyclopropylmethyl)-2-oxo-ethyl]-1H-benzimidazole-2-carboxamide] | < 2000 | – | – |
| N#C[C@H](C[C@@H]1CCNC1=O)NC(=O)[C@H](CC1CC1)NC(=O)c1cc2ccc(Cl)cc2[nH]1 [Compound 529, 6-chloro-N-[(1S)-2-[[(1S)-1-cyano-2-[(3S)-2-oxopyrrolidin-3-yl]ethyl]amino]-1-(cyclopropylmethyl)-2-oxo-ethyl]-1H-indole-2-carboxamide] | < 2000 | – | – |
| N#C[C@H](C[C@@H]1CCNC1=O)NC(=O)[C@H](CC1CC1)NC(=O)c1cc2c(Cl)ccc(Cl)c2[nH]1 [Compound 691, 4,7-dichloro-N-[(1S)-2-[[(1S)-1-cyano-2-[(3S)-2-oxopyrrolidin-3-yl]ethyl]amino]-1-(cyclopropylmethyl)-2-oxo-ethyl]-1H-indole-2-carboxamide] | < 2000 | – | – |
| COc1cc(Cl)c2[nH]c(C(=O)N[C@@H](CC3CC3)C(=O)N[C@H](C#N)C[C@@H]3CCNC3=O)cc2c1 [Compound 695, 7-chloro-N-[(1S)-2-[[(1S)-1-cyano-2-[(3S)-2-oxopyrrolidin-3-yl]ethyl]amino]-1-(cyclopropylmethyl)-2-oxo-ethyl]-5-methoxy-1H-indole-2-carboxamide] | < 2000 | – | – |
